# In patent US7763615B2, “Ecteinascidin analogs for use as antitumour agents” (priority 2001, dated 2010):
# Like-named read-outs stand apart in the source and are kept apart here.
# Key:
# A498 = test: cells; format: cell-based; conditions: Homo sapiens
# Method in brief: (§1)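 SRB colorimetric read-out (490 nm) after TCA fixation gave GI, TGI and LC values from triplicate wells. Before that, cells (5×10^3/well, RPMI 1640 with 10% FBS, 37 °C, 5% CO2) grew drug-free 18 h and were then continuously exposed 48 h to 10–10^−8 μg/ml compound.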
# A549 = test: cells; format: cell-based; conditions: for GI50: read-out: GI50
# Method in brief: as §1
# DU145 = test: cells; format: cell-based
# Method in brief: as §1
# HT29 = test: cells; format: cell-based
# Method in brief: as §1
# MB231 = test: cells; format: cell-based; conditions: Homo sapiens
# Method in brief: as §1
# MCF = test: cells; format: cell-based; conditions: Homo sapiens
# Method in brief: as §1
# MEL-28 = test: cells; format: cell-based
# Method in brief: as §1
# SW-620 = test: cells; format: cell-based; conditions: Homo sapiens
# Method in brief: as §1
# [1] = system: AML-12, normal mouse liver cells; conditions: 24 h
# Experimental: In order to assess the cytotoxicity of the drugs to normal cells, we used 96 well plates plated at a density of 5000 cells per well (except for the FDC-P1 which were plated at 12,000 cells per well) with normal cell lines (ATCC, Table 1) maintained as per the directions of the ATCC: AML-12, normal mouse liver cells; NRK-52E, normal rat kidney cells; L8, normal rat skeletal muscle cells; FDC-P1, normal mouse myelogeous stem cells; and H9c2 (2-1), normal rat cardiac muscle cells. The cells in each plate were permitted to settle overnight before adding the test drug.
# To each well (100 μl medium) 10 μl of drug in media was added at varying concentrations (1×10-10-0.01 mg/ml final concentration) and further incubated overnight at 37° C. with 5% CO2. After 24 h the following assays were performed. All experiments were repeated at least 3 times and were assayed in duplicate.
# MTS assay (CellTiter 96 aqueous) was performed according to the manufacturer's (Promega) directions (for all cell types). Cell viability (mitochondrial activity) is determined via enzymatic conversion of the formazan substrate.
# [2] = system: NRK-52E, normal rat kidney cells; conditions: 24 h
# [3] = system: L8, normal rat skeletal muscle cells; conditions: 24 h
# [4] = system: FDC-P1, normal mouse myelogeous stem cells; conditions: 24 h
# [5] = system: H9c2 (2-1), normal rat cardiac muscle cells; conditions: 24 h
# IGROV-ET = test: cells; format: cell-based; conditions: IGROV-ET, 48 hours exposure, SRB
# Method in brief: as §1
# IGROV = test: cells; format: cell-based
# Method in brief: as §1
# K562 = test: cells; format: cell-based; conditions: K562, 48 hours exposure, SRB
# Method in brief: as §1
# LNCAP = test: cells; format: cell-based; conditions: LNCAP, 48 hours exposure, SRB
# Method in brief: as §1
# LOVO-DOX = test: cells; format: cell-based; conditions: LOVO-DOX, 48 hours exposure, SRB
# Method in brief: as §1
# LOVO = test: cells; format: cell-based; conditions: LOVO, 48 hours exposure, SRB
# Method in brief: as §1
# PANC-1 = test: cells; format: cell-based; conditions: PANC-1, 48 hours exposure, SRB
# Method in brief: as §1
# SK-BR3 = test: cells; format: cell-based; conditions: SK-BR3, 48 hours exposure, SRB
# Method in brief: as §1
# H-MEC-1 = test: Inhibition of cells growth by colorimetric assay (SRB), H-MEC-1; format: cell-based; conditions: H-MEC-1, 48 hours exposure, SRB
# Method in brief: as §1
# SK-OV3 = test: Inhibition of cells growth by colorimetric assay (SRB), SK-OV3; format: cell-based; conditions: SK-OV3, 48 hours exposure, SRB
# Text: The finality of these assays is to interrupt the growth of a “in vitro” tumor cell culture by means of a continued exhibition of the cells to the sample to be testing.
# A colorimetric type of assay, using sulphorhodamine B (SRB) reaction has been adapted for a quantitative measurement of cell growth and viability [following the technique described by Philip Skehan, et al. (1990), New colorimetric cytotoxicity assay for anticancer drug screening, J. Natl. Cancer Inst., 82:1107-1112]
# This form of the assay employs 96 well cell culture microplates of 9 mm diameter (Faircloth, 1988; Mosmann, 1983). Most of the cell lines are obtained from American Type Culture Collection (ATCC) derived from different human cancer types.
# Cells are maintained in RPMI 1640 10% FBS, supplemented with 0.1 g/l penicillin and 0.1 g/l streptomycin sulphate and then incubated at 37° C., 5% CO2 and 98% humidity. For the experiments, cells were harvested from subconfluent cultures using trypsin and resuspended in fresh medium before plating.
# Cells are seeded in 96 well microtiter plates, at 5×10^3 cells per well in aliquots of 195 μl medium, and they are allowed to attach to the plate surface by growing in drug free medium for 18 hours. Afterward, samples are added in aliquots of 5 μl in a ranging from 10 to 10^−8 μg/ml, dissolved in DMSO/EtOH/PBS (0.5:0.5:99). After 48 hours exposure, the antitumor effect are measured by the SRB methodology: cells are fixed by adding 50 μl of cold 50% (wt/vol) trichloroacetic acid (TCA) and incubating for 60 minutes at 4° C. Plates are washed with deionized water and dried. One hundred μl of SRB solution (0.4% wt/vol in 1% acetic acid) is added to each microtiter well and incubated for 10 minutes at room temperature. Unbound SRB is removed by washing with 1% acetic acid. Plates are air dried and bound stain is solubilized with Tris buffer. Optical densities are read on a automated spectrophotometric plate reader at a single wavelength of 490 nm.
# The values for mean+/− SD of data from triplicate wells are calculated. Some parameters for cellular responses can be calculated: GI=growth inhibition, TGI=total growth inhibition (cytostatic effect) and LC=cell killing (cytotoxic effect).
# [6] = Homo sapiens, DU-145, 48 h, DU145, 48 hours exposure, SRB
# [7] = Homo sapiens, HT-29, 48 h, HT29, 48 hours exposure, SRB
# [8] = Homo sapiens, SK-MEL-28, 48 h, MEL-28, 48 hours exposure, SRB
compound,measurement,setting,value
COc1c(C)cc2c(c1O)[C@@H]1C3[C@@H]4SC[C@]5(NCCc6c5[nH]c5ccccc65)C(=O)COC[C@@H](c5c6c(c(C)c(OC(C)=O)c54)OCO6)N3[C@@H](O)[C@H](C2)N1C (stereo partly shown) [Compound 26],CC50,"A498; A498, 48 h, read-out: LC50",26.5 nM
same,GI50,"A498; A498, 48 hours exposure, SRB",2.65 nM
same,IC (TGI),"A498; A498, 48 hours exposure, SRB",6.62 nM
same,GI50,"A549; Homo sapiens, A549, 48 h, A549, 48 hours exposure, SRB",2.65 nM
same,IC (TGI),"A549; Homo sapiens, A549, 48 h, A549, 48 hours exposure, SRB, read-out: TGI",3.97 nM
same,CC50,"A549; Homo sapiens, A549, 48 h, read-out: LC50, A549, 48 hours exposure, SRB",13.2 nM
same,GI50,DU145; [6],2.65 nM
same,IC (TGI),DU145; [6],3.97 nM
same,CC50,"DU145; Homo sapiens, DU-145, 48 h, read-out: LC50, DU145, 48 hours exposure, SRB",10.6 nM
same,GI50,HT29; [7],3.97 nM
same,IC (TGI),HT29; [7],7.95 nM
same,CC50,"HT29; Homo sapiens, HT-29, 48 h, read-out: LC50, HT29, 48 hours exposure, SRB",13.2 nM
same,CC50,"MB231; 48 h, read-out: LC50",13.2 nM
same,GI50,"MB231; MB231, 48 hours exposure, SRB",2.65 nM
same,IC (TGI),"MB231; MB231, 48 hours exposure, SRB, read-out: TGI",5.3 nM
same,CC50,"MCF; 48 h, read-out: LC50",11.9 nM
same,GI50,"MCF; MCF, 48 hours exposure, SRB",2.65 nM
same,IC (TGI),"MCF; MCF, 48 hours exposure, SRB, read-out: TGI",5.3 nM
same,GI50,MEL-28; [8],2.65 nM
same,IC (TGI),MEL-28; [8],5.3 nM
same,CC50,"MEL-28; Homo sapiens, SK-MEL-28, 48 h, read-out: LC50, MEL-28, 48 hours exposure, SRB",10.6 nM
same,CC50,"SW-620; SW-620, 48 h, read-out: LC50",79.5 nM
same,IC (TGI),"SW-620; SW-620, 48 hours exposure, SRB",7.95 nM
same,GI50,"SW-620; SW-620, 48 hours exposure, SRB, read-out: GI50",2.65 nM
same,Liver,[1],1.06E−06
same,Kidney,[2],4.60E−08
same,Skeletal,[3],3.71E−08
same,Myelo,[4],1.03E−07
same,Heart,[5],6.43E−07
COc1c(C)cc2c(c1O)[C@@H]1C3[C@@H]4SC[C@]5(NC(C)Cc6c5[nH]c5ccc(O)cc65)C(=O)COC[C@@H](c5c6c(c(C)c(OC(C)=O)c54)OCO6)N3[C@@H](O)[C@H](C2)N1C (stereo partly shown) [Compound 38],TGI,"A549; A549, 48 hours exposure, SRB",5.24E−09 Molar
same,GI50,"A549; A549, 48 hours exposure, SRB",2.38 nM
same,CC50,"A549; read-out: LC50, A549, 48 hours exposure, SRB",11.5 nM
same,GI50,"DU145; DU145, 48 hours exposure, SRB",2.04 nM
same,TGI,"DU145; DU145, 48 hours exposure, SRB",6.80E−09 Molar
same,CC50,"DU145; read-out: LC50, DU145, 48 hours exposure, SRB",12700 nM
same,GI50,"HT29; HT29, 48 hours exposure, SRB",4.2 nM
same,TGI,"HT29; HT29, 48 hours exposure, SRB",1.69E−08 Molar
same,CC50,"HT29; read-out: LC50, HT29, 48 hours exposure, SRB",12700 nM
same,GI50,IGROV-ET,15.7 nM
same,TGI,IGROV-ET,6.59E−08 Molar
same,CC50,IGROV-ET; read-out: LC50,6510 nM
same,GI50,"IGROV; 48 hours exposure, SRB",0.757 nM
same,TGI,"IGROV; 48 hours exposure, SRB",2.89E−09 Molar
same,CC50,"IGROV; read-out: LC50, 48 hours exposure, SRB",8.4 nM
same,GI50,K562,0.422 nM
same,TGI,K562,8.18E−10 Molar
same,CC50,K562; read-out: LC50,3.15 nM
same,GI50,LNCAP,0.2 nM
same,TGI,LNCAP,7.21E−10 Molar
same,CC50,LNCAP; read-out: LC50,3.07 nM
same,GI50,LOVO-DOX,55.3 nM
same,TGI,LOVO-DOX,8.42E−07 Molar
same,CC50,LOVO-DOX; read-out: LC50,12700 nM
same,GI50,LOVO,3.55 nM
same,TGI,LOVO,1.03E−08 Molar
same,CC50,LOVO; read-out: LC50,12700 nM
same,GI50,"MEL-28; MEL-28, 48 hours exposure, SRB",2.73 nM
same,TGI,"MEL-28; MEL-28, 48 hours exposure, SRB",5.33E−09 Molar
same,CC50,"MEL-28; read-out: LC50, MEL-28, 48 hours exposure, SRB",10.4 nM
same,GI50,PANC-1,3.22 nM
same,TGI,PANC-1,8.37E−09 Molar
same,CC50,PANC-1; read-out: LC50,428 nM
same,GI50,SK-BR3,1.07 nM
same,TGI,SK-BR3,3.38E−09 Molar
same,CC50,SK-BR3; read-out: LC50,9.54 nM
same,GI50,H-MEC-1,3.06 nM
same,TGI,H-MEC-1,8.93E−09 Molar
same,CC50,H-MEC-1; read-out: LC50,12700 nM
same,GI50,SK-OV3,2.55 nM
same,TGI,SK-OV3,7.13E−09 Molar
same,CC50,SK-OV3; read-out: LC50,12700 nM
same,Liver,[1],1.39E−10
same,Kidney,[2],9.85E−08
same,Skeletal,[3],1.29E−08
same,Myelo,[4],9.66E−11
same,Heart,[5],2.96E−09
